Data taken from US20240277658A1, “NLRP3 ACTIVATORS FOR USE IN THE TREATMENT OF INFECTIOUS DISEASES OR CANCER BY ACTIVATING NLRP3 INFLAMMASOME” (ALBERT-LUDWIGS-UNIVERSITÄT FREIBURG, priority 2020, published 2024).
Where “and” joins values, the source holds several entries; their conditions need not be identical. Identical values can stand only once. Like-named read-outs stand apart in the source and are kept apart here.

Columns and labels:
BMDCs = assay: LDH release (lytic cell death, pyroptosis) from LPS-primed BMDCs; assay type: cell-based, mouse; details: compound 50 μM; for Average (% positive control): LDH release, positive control nigericin 5 μM; for cytotoxicity at 50 µM: Mus musculus, BMDC, LPS-primed BMDCs
Procedure, shortened: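 LDH released into medium, detected colorimetrically, served as the pyroptosis read-out in triplicate. LPS-primed (50 ng ml^−1, 3 h) murine bone marrow-derived dendritic cells received test compounds, typically 50 μM, or nigericin (5 μM), R837 or CL097 (100 μM) for 3 hours.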

NLRP3 inflammasome = biological target: T1, NLRP3 inflammasome (Mus musculus, UniProt Q8R4B8); assay: IL-1β release from LPS-primed BMDCs (ELISA) as readout of NLRP3 inflammasome activation; assay type: cell-based; details: compound 50 μM; for Average (% positive control): IL-1β release, positive control nigericin 5 μM; for Average IL-1β / IL-1β: LPS-primed BMDCs; for IL-1β: single replicates
T1 construct: endogenous in cells; host or cells: primary mouse bone marrow-derived dendritic cells (BMDCs), LPS-primed
Procedure, shortened: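 NLRP3 inflammasome activation was read out as IL-1β released into the supernatant, measured by ELISA. Murine BMDCs were primed with LPS (50 ng ml^−1, 3 hours), then incubated with compounds for 3 hours, with each condition run in three technical replicates. Nigericin at 5 μM acted as the positive control activator, and IL-1β release was also expressed as a percentage of that control.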

[1] = read-out: Average LDH release (% of max.)
[2] = single replicates, read-out: LDH release (% of max.)

T1 sequence (Q8R4B8 whole entry): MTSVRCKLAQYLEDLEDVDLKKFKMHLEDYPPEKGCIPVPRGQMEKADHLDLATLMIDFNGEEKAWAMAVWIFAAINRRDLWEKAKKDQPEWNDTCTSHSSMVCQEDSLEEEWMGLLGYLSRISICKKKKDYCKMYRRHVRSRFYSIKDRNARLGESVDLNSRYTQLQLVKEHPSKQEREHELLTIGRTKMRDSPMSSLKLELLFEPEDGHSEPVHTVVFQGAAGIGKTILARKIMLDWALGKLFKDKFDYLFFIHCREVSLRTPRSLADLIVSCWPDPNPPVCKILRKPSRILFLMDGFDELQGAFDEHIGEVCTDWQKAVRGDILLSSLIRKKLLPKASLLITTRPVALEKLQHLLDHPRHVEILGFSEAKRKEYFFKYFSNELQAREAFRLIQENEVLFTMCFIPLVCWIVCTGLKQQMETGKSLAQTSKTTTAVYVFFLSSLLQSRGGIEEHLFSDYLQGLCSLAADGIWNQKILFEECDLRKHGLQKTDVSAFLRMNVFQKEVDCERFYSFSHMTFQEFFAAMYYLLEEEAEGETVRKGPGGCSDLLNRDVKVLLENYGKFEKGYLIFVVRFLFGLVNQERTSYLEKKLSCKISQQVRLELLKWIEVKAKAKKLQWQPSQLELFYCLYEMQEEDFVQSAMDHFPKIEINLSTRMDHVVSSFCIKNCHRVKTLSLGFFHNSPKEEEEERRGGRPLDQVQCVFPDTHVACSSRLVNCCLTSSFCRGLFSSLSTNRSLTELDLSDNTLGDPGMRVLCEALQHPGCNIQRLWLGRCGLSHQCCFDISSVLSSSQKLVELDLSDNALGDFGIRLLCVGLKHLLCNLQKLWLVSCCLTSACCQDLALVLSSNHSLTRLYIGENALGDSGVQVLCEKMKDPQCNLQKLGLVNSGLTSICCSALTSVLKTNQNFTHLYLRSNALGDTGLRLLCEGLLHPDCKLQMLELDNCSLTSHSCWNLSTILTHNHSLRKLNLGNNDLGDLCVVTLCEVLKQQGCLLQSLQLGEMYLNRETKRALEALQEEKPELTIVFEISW

| SMILES | Average (% positive control) (BMDCs) | cytotoxicity at 50 µM (BMDCs; [1]) | cytotoxicity at 50 µM (BMDCs; [2]) | Average (% positive control) (NLRP3 inflammasome) | Average IL-1β (NLRP3 inflammasome) | IL-1β (NLRP3 inflammasome) |
| --- | --- | --- | --- | --- | --- | --- |
| O=C(Nc1cccc(Cl)c1)N1CCOCC1c1nc(-c2cccs2)no1 (stereo not drawn) [L01.090, N-(3-chlorophenyl)-3-[3-(thiophen-2-yl)-1,2,4-oxadiazol-5-yl]morph-oline-4-carboxamide] | 20.610 % positive control | 15.1% | 15.3% | 1.044 % positive control | 0.075 ng/mL | 0.079 ng/mL and 0.077 ng/mL and 0.069 ng/mL |
| O=C(Nc1ccccc1)Nc1ccc(NC(=O)c2ccoc2)cc1 [L01.092, N-{4-[(phenylcarbamo-yl)amino]phenyl}furan-3-carboxamide] | 20.483 % positive control | 15% | 16.4% | 15.066 % positive control | 1.080 ng/mL | 1.253 ng/mL and 1.060 ng/mL and 0.927 ng/mL |
| CC(C)CC(NC(=O)Nc1cccc(N2CCC(C)CC2)c1)c1nc(-c2nnc[nH]2)no1 (stereo not drawn) [L01.093, 3-{3-methyl-1-[3-(4H-1,2,4-triazol-3-yl)-1,2,4-oxadiazol-5-yl]butyl}-1-[3-(4-methylpiperidin-1-yl)phenyl]urea] | 11.139 % positive control | 8.15% | 6.68% | 0.998 % positive control | 0.072 ng/mL | 0.056 ng/mL and 0.050 ng/mL and 0.108 ng/mL |
| CC(=NO)c1ccc(NC(=O)Nc2ccccc2)cc1 [L01.095, 3-{4-[1-(hydroxyimino)-ethyl]phenyl}-1-phenyl-urea] | 7.959 % positive control | 5.82% | 5.21% | 1.703 % positive control | 0.122 ng/mL | 0.137 ng/mL and 0.128 ng/mL and 0.102 ng/mL |
| CC(C)C(NC(=O)Nc1ccc(Cl)cc1)c1nc(-c2ccccc2)no1 (stereo not drawn) [L01.097, 1-(4-chlorophenyl)-3-[2-methyl-1-(3-phenyl-1,2,4-oxadiazol-5-yl)-propyl]urea] | 51.271 % positive control | 37.5% | 39.5% | 1.765 % positive control | 0.126 ng/mL | 0.121 ng/mL and 0.143 ng/mL and 0.116 ng/mL |
| O=C(Nc1cccc(S(=O)(=O)C2CCCC2)c1)N1CCCCC1c1nc(-c2ccccc2)no1 (stereo not drawn) [L01.099, N-[3-(cyclopentane-sulfonyl)phenyl]-2-(3-phenyl-1,2,4-oxadiazol-5-yl)piperidine-1-carboxamide] | 13.410 % positive control | 9.81% | 10.6% | 0.932 % positive control | 0.067 ng/mL | 0.074 ng/mL and 0.067 ng/mL and 0.059 ng/mL |
| O=C(Nc1ccccc1)Nc1ccc(NC(=O)C2CCOC2)cc1 (stereo not drawn) [L01.101, N-{4-[(phenylcarbamo-yl)amino]phenyl}oxo-lane-3-carboxamide] | 27.161 % positive control | 19.9% | 19.4% | 15.216 % positive control | 1.091 ng/mL | 1.160 ng/mL and 1.071 ng/mL and 1.041 ng/mL |
| O=C(Nc1ccccc1)Nc1cccc(NC(=O)C2CCCC2)c1 [L01.103, N-{3-[(phenylcarbamo-yl)amino]phenyl}cyclo-pentanecarboxamide] | 10.791 % positive control | 7.89% | 6.58% | 1.624 % positive control | 0.116 ng/mL | 0.060 ng/mL and 0.049 ng/mL and 0.240 ng/mL |
| O=C(Nc1ccccc1)Nc1ccc(NC(=O)C2CCCC2)cc1 [L01.104, N-{4-[(phenylcarbamo-yl)amino]phenyl}cyclo-pentanecarboxamide] | 24.873 % positive control | 18.2% | 17.2% | 16.230 % positive control | 1.163 ng/mL | 1.103 ng/mL and 1.142 ng/mL and 1.246 ng/mL |
| O=C(Nc1ccccc1)Nc1cccc([N+](=O)[O-])c1 [L01.108, 3-(3-nitrophenyl)-1-phenylurea] | 14.362 % positive control | 10.5% | 10.9% | 0.973 % positive control | 0.070 ng/mL | 0.076 ng/mL and 0.061 ng/mL and 0.072 ng/mL |
| CC(=O)Nc1ccc(NC(=O)Nc2ccccc2)cc1 [L01.109, N-{4-[(phenylcarbamo-yl)amino]phenyl}acet-amide] | 10.912 % positive control | 7.98% | 8.46% | 1.269 % positive control | 0.091 ng/mL | 0.120 ng/mL and 0.083 ng/mL and 0.070 ng/mL |
| CC1Oc2ccc(NC(=O)Nc3ccccc3)cc2NC1=O (stereo not drawn) [L01.110, 3-(2-methyl-3-oxo-3,4-dihydro-2H-1,4-benzox-azin-6-yl)-1-phenylurea] | 46.015 % positive control | 33.7% | 34.8% | 36.599 % positive control | 2.624 ng/mL | 2.505 ng/mL and 2.943 ng/mL and 2.423 ng/mL |
| N#Cc1ccc(NC(=O)NC(CO)c2nc(-c3ccccc3)no2)cc1 (stereo not drawn) [L01.112, 1-(4-cyanophenyl)-3-[2-hydroxy-1-(3-phenyl-1,2,4-oxadiazol-5-yl)-ethyl]urea] | 10.010 % positive control | 7.32% | 7.96% | 0.955 % positive control | 0.068 ng/mL | 0.075 ng/mL and 0.069 ng/mL and 0.061 ng/mL |
| CCc1ccc(Cl)c(CC)c1NC(=O)NC(c1nc(-c2cccnc2)no1)C(C)C (stereo not drawn) [L01.113, 1-(3-chloro-2,6-diethyl-phenyl)-3-{2-methyl-1-[3-(pyridin-3-yl)-1,2,4-oxadiazol-5-yl]propyl}-urea] | 49.256 % positive control | 36% | 37.4% | 15.691 % positive control | 1.125 ng/mL | 1.145 ng/mL and 1.165 ng/mL and 1.064 ng/mL |
| CC(C)C(NC(=O)Nc1ccc2c(c1)COC2)c1nc(-c2cccnc2)no1 (stereo not drawn) [L01.114, 3-(1,3-dihydro-2-benzo-furan-5-yl)-1-{2-meth-yl-1-[3-(pyridin-3-yl)-1,2,4-oxadiazol-5-yl]-propyl}urea] | 12.801 % positive control | 9.37% | 9.46% | 1.049 % positive control | 0.075 ng/mL | 0.073 ng/mL and 0.081 ng/mL and 0.072 ng/mL |
| O=C(NCc1nc(-c2ccsc2)no1)Nc1cc(Cl)cc(Cl)c1 [L01.115, 1-(3,5-dichlorophenyl)-3-{[3-(thiophen-3-yl)-1,2,4-oxadiazol-5-yl]-methyl}urea] | 30.346 % positive control | 22.2% | 23.6% | 1.584 % positive control | 0.114 ng/mL | 0.122 ng/mL and 0.108 ng/mL and 0.111 ng/mL |
| Cc1ccc(NC(=O)Nc2ccccc2)cc1NC(=O)C(F)F [L01.116, 2,2-difluoro-N-{2-meth-yl-5-[(phenylcarbamo-yl)amino]phenyl}acet-amide] | 24.685 % positive control | 18.1% | 18% | 16.099 % positive control | 1.154 ng/mL | 1.107 ng/mL and 1.192 ng/mL and 1.163 ng/mL |
